Measured values taken from PMC11500415, “Chemical inhibition of stomatal differentiation by perturbation of the master-regulatory bHLH heterodimer via an ACT-Like domain” (Nature Communications, 2024).
“And” between values parts separate entries of the source, which are not always exact repeats. Identical values can stand only once. Like-named read-outs stand apart in the source and are kept apart here.

How the values were obtained:
Assay in all cases: BLI direct binding
Design in all cases: species or system A. thaliana
[1] = biological target: T1, FAMA (Arabidopsis thaliana, UniProt Q56YJ8)
T1 construct: ΔNFAMA (190-414); made in house; host or cells: E. coli BL21
Description: (§1) A. thaliana SCRM (1-494), ΔNSPCH (98-364), MUTE (1-202), ΔNFAMA (190-414), MUTEΔC (1-114), MUTER133A_R134A, MUTEE162A_E163A, MUTER133A_R134A_E162A_E163A, SCRM-ACTL (405-494), MUTE-ACTL (114-202), SPCH-ACTL (285-364), FAMA-ACTL (306-414), MUTE_ACTLR133A_R134A, MUTE_ACTLE162A_E163A, MUTE_ACTLR133A_R134A_E162A_E163A were cloned into pGEX-4T-1 vector with an N-terminal GST tag and a thrombin cleavage sequence. For protein expression, the constructs were transformed into E. coli strain BL21. For each transformant, a single colony was selected and incubated in 10 ml LB liquid media. The overnight-incubated E. coli suspensions were transferred to 1 L LB medium and incubated at 37 °C for around 2 h until the OD600 reached 0.4–0.6. The isopropyl β-D-1-thiogalactopyranoside ([…] of final concentration) was added to the cultures and the strains were incubated at 22 °C for a further 18 h. GST-fused proteins were purified using glutathione agarose resin. The soluble portion of the cell lysate was loaded onto a GST-Sepharose column. Nonspecifically bound proteins were removed by washing the column with 20 mM Tris pH 8.0, 200 mM NaCl. The bound GST-fused protein was eluted with 10 mm glutathione and 20 mM Tris pH 8.0, 200 mM NaCl. The GST-fused proteins were exchanged with phosphate-buffered saline buffer, and then the solution was treated with 50 μg of thrombin for 10–12 h at 16 ^οC. The GST portion of the protein was cleaved during thrombin digestion, and then the whole solution was reloaded onto the glutathione S-transferase column to obtain pure protein. The purified proteins were further purified by gel filtration on a Superdex-200 (GE) column using fast protein liquid chromatography and phosphate buffer (pH 7.2) as the eluent. The purity of the protein was checked by SDS-PAGE. For detailed lists of oligo DNA and plasmid information, see Supplementary Tables 5, 6, respectively.
(§2) The binding affinities of SCRM to MUTE / MUTER133A_R134A / MUTEE162A_E163A / MUTER133A_R134A_E162A_E163A in presence and absence of Stomidazolone (3) and its analogues (AYSJ1059 (5) and AYSJ1061 (6)), and Stomidazolone / AYSJ1059 / AYSJ1061 interactions with GST-tagged SCRM, MUTE, SPCH, FAMA, MUTE ΔACTL, MUTE_ACTL, SCRM_ACTL, SPCH_ACTL and FAMA_ACTL, MUTER133A_134A, MUTEE162A_E163A, MUTER133A_R134A_E162A_E163A were measured using the Octet Red96 system (ForteBio, Pall Life Sciences) following the manufacturer’s protocols. The optical probes coated with anti-GST were first loaded with 500 nM GST tagged proteins before kinetic binding analyses. The experiment was performed in 96-well plates maintained at 30 °C. Each well was loaded with 200 μL reaction volume for the experiment. The binding buffer used in these experiments contained 1× PBS supplemented with 2% DMSO, 0.02% Tween20. The concentrations of the Stomidazolone as the analyte in the binding buffer were 100, 50, 25, 12.5, 6.25, 3.12, and 1.56 μM. There was no binding of the analytes to the unloaded probes as shown by the control wells. Binding kinetics to all seven concentrations of the analytes were measured simultaneously using default parameters on the instrument. The data were analyzed using the Octet data analysis software. The association and dissociation curves were fit with the 1:1 homogeneous ligand model. The kobs (observed rate constant) values were used to calculate Kd, with steady-state analysis of the direct binding. See Supplementary Table 3 for details.

[2] = biological target: T2, FAMA_ACTL (Arabidopsis thaliana, UniProt Q56YJ8)
T2 construct: FAMA-ACTL (306-414); GST (N, cleaved yes); made in house; host or cells: E. coli BL21
Description: as §1, §2

[3] = biological target: T3, MUTE_ACTLR133A_R134A_E162A_E163A (Arabidopsis thaliana, UniProt Q9M8K6, E162A/E163A/R133A/R134A); conditions: for Response: MUTE_R133A_R134A_E162A_E163A on Anti-GST sensor, rep-1, rep-2
T3 construct: MUTE-ACTL (114-202); made in house; host or cells: E. coli BL21
Description: as §1, §2

[4] = biological target: T4, SCRM_ACTL (Arabidopsis thaliana, UniProt Q9LSE2)
T4 construct: SCRM-ACTL (405-494); GST (N, cleaved yes); made in house; host or cells: E. coli BL21
T4 sequence (Q9LSE2 405-494): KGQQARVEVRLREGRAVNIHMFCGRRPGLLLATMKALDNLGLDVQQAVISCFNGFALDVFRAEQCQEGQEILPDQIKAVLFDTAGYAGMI
Description: as §1, §2

[5] = biological target: T5, SPCH_ACTL (Arabidopsis thaliana, UniProt Q700C7)
T5 construct: SPCH-ACTL (285-364); GST (N, cleaved yes); made in house; host or cells: E. coli BL21
Description: as §1, §2

[6] = FAMA loaded on Anti-GST sensor, fit per sensor, Stomid Conc. (mM) 200-3.12, rep-1, rep-2
[7] = FAMA, Conc. (mM) 3.12, rep-1, rep-2
[8] = FAMA, Conc. (mM) 6.25, rep-1, rep-2
[9] = FAMA, Conc. (mM) 12.5, rep-1, rep-2
[10] = FAMA, Conc. (mM) 25, rep-1, rep-2
[11] = FAMA, Conc. (mM) 50, rep-1, rep-2
[12] = FAMA, Conc. (mM) 100, rep-1, rep-2
[13] = FAMA, Conc. (mM) 200, rep-1, rep-2
[14] = BLI steady state, read-out: KD (SS)

T1 sequence (Q56YJ8 190-414): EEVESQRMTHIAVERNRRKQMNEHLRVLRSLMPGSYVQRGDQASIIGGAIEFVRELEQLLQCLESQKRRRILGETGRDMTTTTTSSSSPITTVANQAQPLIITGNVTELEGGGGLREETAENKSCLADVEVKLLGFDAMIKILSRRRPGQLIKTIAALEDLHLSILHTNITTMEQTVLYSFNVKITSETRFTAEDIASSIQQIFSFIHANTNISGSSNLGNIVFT
T3 sequence (Q9M8K6 114-202 R133A/R134A/E162A/E163A): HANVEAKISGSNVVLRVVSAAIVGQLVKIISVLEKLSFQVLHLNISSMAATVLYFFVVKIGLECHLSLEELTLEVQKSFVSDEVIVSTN
T2 sequence (Q56YJ8 306-414): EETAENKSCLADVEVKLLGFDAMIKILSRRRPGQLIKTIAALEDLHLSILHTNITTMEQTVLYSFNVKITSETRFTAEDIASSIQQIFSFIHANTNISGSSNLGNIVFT
T5 sequence (Q700C7 285-364): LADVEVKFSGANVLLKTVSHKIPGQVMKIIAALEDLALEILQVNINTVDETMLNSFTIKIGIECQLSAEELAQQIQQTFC

Structure (SMILES): O=C1C(c2ccccc2)=NC(NS(=O)(=O)c2ccccc2)(c2ccccc2)N1S(=O)(=O)c1ccccc1 (stereo not drawn) [Stomidazolone]
- Kd ([1]; BLI steady state, FAMA, read-out: KD (SS)): 0.0782 ± 0.0065 mM
- kdis [1, 6]: 0.177 s⁻¹ and 0.176 s⁻¹ and 0.175 s⁻¹ and 0.178 s⁻¹ and 0.171 s⁻¹ and 0.18 s⁻¹
- kon [1, 6]: 2080 M⁻¹ s⁻¹
- Kd ([1]; FAMA loaded on Anti-GST sensor, fit per sensor, Stomid Conc. (mM) 200-3.12, rep-1, rep-2, read-out: KD): 0.0867 mM and 0.0859 mM and 0.0882 mM and 0.0891 mM and 0.0863 mM and 0.0866 mM and 0.0851 mM and 0.0817 mM and 0.0856 mM and 0.0903 mM and 0.0845 mM
- RMax [1, 7]: 0.095 and 0.0512
- Req/Rmax(%) [1, 7]: 100%
- Response [1, 7]: 0.0912 and 0.0512
- kobs [1, 7]: 0.00577 s⁻¹ and 0.0035 s⁻¹
- RMax [1, 8]: 0.108 and 0.0812
- Req/Rmax(%) [1, 8]: 97% and 100%
- Response [1, 8]: 0.1071 and 0.0812
- RMax [1, 9]: 0.124 and 0.1621
- Response [1, 9]: 0.1223 and 0.1621
- RMax [1, 10]: 0.165 and 0.1913
- Response [1, 10]: 0.1623 and 0.1913
- RMax [1, 11]: 0.251 and 0.2843
- Req/Rmax(%) [1, 11]: 89%
- Response [1, 11]: 0.2461 and 0.2843
- RMax [1, 12]: 0.435 and 0.3712
- Response [1, 12]: 0.4312 and 0.3712
- RMax [1, 13]: 0.553 and 0.5072
- Req/Rmax(%) [1, 13]: 98%
- Response [1, 13]: 0.5523 and 0.5072
- koff ([1]; read-out: kdis(1/s), FAMA loaded on Anti-GST sensor, fit per sensor, Stomid Conc. (mM) 200-3.12, rep-1, rep-2): 0.179 s⁻¹
- kon ([1]; read-out: kon(1/Ms), FAMA loaded on Anti-GST sensor, fit per sensor, Stomid Conc. (mM) 200-3.12, rep-1, rep-2): 2070 M⁻¹ s⁻¹
- Kd [2, 14]: 105 ± 13.8 µM
- Kd ([2]; BLI, read-out: KD): 95.2 ± 3.5 µM
- KD (SS) ([3]; BLI steady state, MUTE_ACTL R133A_R134A_E162A_E163A, ND = no binding was detected): no binding was detected
- Response ([3]; Stomid 3.12 µM): 0.021 and 0.041
- Response ([3]; Stomid 6.25 µM): 0.061 and 0.035
- Response ([3]; Stomid 12.5 µM): 0.063 and 0.047
- Response ([3]; Stomid 25 µM): 0.078 and 0.041
- Response ([3]; Stomid 50 µM): 0.062 and 0.082
- Response ([3]; Stomid 100 µM): 0.075 and 0.108
- Response ([3]; Stomid 200 µM): 0.104 and 0.136
- Kd [4, 14]: 76 ± 6.8 µM
- Kd ([4]; BLI, read-out: KD): 78.2 ± 1.2 µM
- Kd [5, 14]: 95.2 ± 3.8 µM
- Kd ([5]; BLI, read-out: KD): 88.1 ± 1.1 µM
